Drawing on paper doi:10.1101/2020.01.20.912972v1 (biorxiv, 2020), this text covers Kd for 5 compounds.

In general, Kd refers to the concentration at which binding is half-saturated. Higher therefore signals weaker binding.

Assay [1] deals with TrpR (tryptophan repressor; TrpR-Wt) (Escherichia coli, UniProt P0A881). Put plainly: isothermal titration calorimetry. It is filed as binding. (ITC needs no label: the signal is the heat of the interaction.)
The target of assay [2] is TrpR (tryptophan repressor; TrpR-Wt) (Escherichia coli, UniProt P0A881, S88Y). Nature of the assay: isothermal titration calorimetry. In kind it is binding.

Compound `N[C@@H](Cc1c[nH]c2ccccc12)C(=O)O` [TRP, Tryptophan] registered a Kd in assay [1] of 40.3 ± 2.35 µM.

Turning to `O=C(O)CCCc1c[nH]c2ccccc12` [IBA, Indole-3-butyric acid], the Kd stood at 10.4 ± 1.25 µM in assay [2] and 32.7 ± 0.88 µM in assay [1].

In the case of `O=C(O)Cc1c[nH]c2ccccc12` [IAA, Indole-3-acetic acid], the values for the Kd in assay [2] and in assay [1] were 29.3 ± 2.08 µM and 162 ± 14 µM, respectively.

Compound `Cc1ccc2[nH]cc(CC(N)C(=O)O)c2c1` (racemic) [5-Met-TRP, 5-Methyl-DL-Tryptophan] yielded a Kd in assay [1] of 62.2 ± 15.6 µM. `O=C(O)CCc1c[nH]c2ccccc12` [IPA, Indole-3-propionic acid]: the Kd in assay [2] stood at 7.49 ± 0.91 µM; in assay [1], 33.4 ± 1.16 µM.
